Test [1] deals with NIH-3T3. Put plainly: MTT analysis, cytotoxicity against normal cell line. The test is classed as cell-based, mouse. The following applies: Mus musculus, NIH3T3; MTT, 48 hr.
The test system of test [2] is PC-3 prostate cancer cell line. As to the kind of experiment: MTT analysis, anticancer activity. The test is classed as cell-based, human. As to conditions: Homo sapiens, 48 hr.
The test system of another test is HS27. Put plainly: MTT analysis, cytotoxicity against normal cell line. The format is cell-based, human. As to conditions: Homo sapiens, HS27; MTT, 48 hr.
A further test relates to HT1080. As to the kind of experiment: MTT analysis, anticancer activity. The format is cell-based, human. The following applies: Homo sapiens, HT-1080, 48 hr.
Test [3] concerns NIH-3T3. Put plainly: Adhesion of cell to Laminin. The test is classed as cell-based, mouse. As to the method: (§1) After treating HNP-98701 on tissue culture plate coated with the matrices, cancer cell was attached thereupon. To be specific, 50 μl/ml of […], 2 μg/ml of laminin, 2 μg/ml of collagen and 2 μg/ml of gelatin were coated on the surface of 96-well microplate (Corning Co.) per well. After solidifying for 2 hr, HNP-98701 was added to each well and treated for 1 hr. […] After treating the substances for 1 hr, cancer cell was added to each cell, and it was cultured for 3 hr. […] After culturing these cell lines for 3 hr, they were centrifuged. After collecting biomass only, it was washed with distilled water or PBS buffer solution for three times. […] Then, absorbance was measured at 560-405 nm with automatic Eliza detector (Molecular […] Corp., USA). […] Each experiment was performed for three times repeatedly.

Test [4] deals with SK-MEL-28. As to the kind of experiment: MTT analysis, anticancer activity. The format is cell-based, human. The following applies: Homo sapiens, SK-MEL-28, 48 hr.
Another test concerns SK-N-SH. Put plainly: MTT analysis, anticancer activity. As to conditions: Homo sapiens, SK-N-SH, 48 hr. The test is classed as cell-based, human.
Test [5] relates to SK-MEL-28. As to the kind of experiment: Adhesion of cancer cell to Collagen. The format is cell-based, human. As to the method: as §1
Another test has as its system Hep-2. Put plainly: Adhesion of cancer cell to Collagen. The test is classed as cell-based, human. As to the method: as §1
Test [6] has as its system SK-Hep-1. As to the kind of experiment: Adhesion of cancer cell to Collagen. The test is classed as cell-based, human. As to the method:
as §1

Test [7] relates to SK-Hep-1. As to the kind of experiment: Adhesion of cancer cell to Matri-Gel. The format is cell-based, human. On the procedure:
as §1

The test system of the next test is CPAE. Put plainly: MTT analysis, cytotoxicity against normal cell line. The test is classed as cell-based, bovine. The following applies: Bos taurus; MTT, 48 hr.

The values below come from patent publication US20040024055A1, “Pharmaceutical composition containing the exract of saururus chinensis baill useful as an anticancer agent and a process for the preparation thereof” (priority 2000, published 2004).

Values after ≈ are worked out from the molar mass of the structure shown.

As a reminder, the IC50 is the concentration that gives 50% inhibition. A higher IC50 goes with lower potency. On to `COc1cccc2c1C(=O)c1c(O)c3c(c(O)c1C2=O)C[C@@](O)(C(=O)CO)C[C@@H]3O[C@H]1C[C@H](N)[C@H](O)[C@H](C)O1` [Adriamycin, adriamycin (doxorubicin)], for which the IC50 in the test with NIH-3T3 [1] came to 0.496 µg/mL (≈ 0.913 µM); in [2] it was 0.575 µg/mL (≈ 1.06 µM); in the test on HS27, 0.218 µg/mL (≈ 0.401 µM); in the test with HT1080, 0.719 µg/mL (≈ 1.32 µM); in the test on SK-MEL-28 [4], 0.75 µg/mL (≈ 1.38 µM); in the test on SK-N-SH, 0.207 µg/mL (≈ 0.381 µM). Further, the half-inhibitory concentration (IC50) with CPAE is 0.0208 µg/mL (≈ 0.0383 µM). Besides, the “Adhesion NIH-3T3 (%)” value in the test on NIH-3T3 [3] (0.1 μg/ml) stood at 107.38%; in the test on NIH-3T3 [3] (1 μg/ml), 103.07%; in the test on NIH-3T3 [3] (10 μg/ml), 91.63%. Moreover, the “Adhesion SK-MEL-28 (%)” value in the test with SK-MEL-28 [5] (0.1 μg/ml) turned out to be 94.27%; in the test with SK-MEL-28 [5] (1 μg/ml) it was 94.49%; in the test on SK-MEL-28 [5] (10 μg/ml), 94.71%. The “Adhesion Hep-2 (%)” value turned out to be 91.10% with Hep-2 (0.1 μg/ml), 93.11% in the test on Hep-2 (1 μg/ml) and 88.85% in the test on Hep-2 (10 μg/ml). In addition, the “Adhesion SK-Hep-1 (%)” value with SK-Hep-1 [6] (0.1 μg/ml) is 98.83%; in the test on SK-Hep-1 [6] (1 μg/ml) it was 97.89%; with SK-Hep-1 [6] (10 μg/ml), 103.28%; with SK-Hep-1 [7] (0.1 μg/ml), 99.04%; in the test on SK-Hep-1 [7] (1 μg/ml) it was 95.93%; in the test on SK-Hep-1 [7] (10 μg/ml) it was 88.74%.
